Source: publication PMC7872314, “Modeling Bioavailable Concentrations in Zebrafish Cell Lines and Embryos Increases the Correlation of Toxicity Potencies across Test Systems” (Environmental Science & Technology, 2020)

tested on: zebrafish embryos; assay: not given; parameters: method as in earlier work; conditions: 144 hpf, nominal, converted; cited from earlier work

| SMILES | EC50 [nM] |
| --- | --- |
| COCC(=O)Nc1cc(Sc2ccccc2)ccc1N/C(=N\C(=O)OC)NC(=O)OC [Febantel, febantel] | 761 |

same assay, conditions: nominal, log10; cited from earlier work

| SMILES | logEC50 144 hpf [M] |
| --- | --- |
| COCC(=O)Nc1cc(Sc2ccccc2)ccc1N/C(=N\C(=O)OC)NC(=O)OC [Febantel, febantel] | -6.118 |

tested on: not given; assay: not given; conditions: ref Comptox, PubChem or DrugBank; cited from earlier work

| SMILES | logKow | pKa (Strongest Basic) | Water Solubility [µg/mL] | pKa (Strongest Acidic) |
| --- | --- | --- | --- | --- |
| CC1(C)C(C=C(Cl)Cl)C1C(=O)OCc1cccc(Oc2ccccc2)c1 (centres unmarked) [Permethrin] | 6.5 | -3.7 |  |  |
| COP(=S)(OC)Oc1ccc([N+](=O)[O-])c(C)c1 [Fenitrothion] | 3.3 |  |  |  |
| c1ccc2[nH]c(-c3cscn3)nc2c1 [Thiabendazole] | 2.47 | 4.6 |  |  |
| COP(=O)(OC)OC=C(Cl)Cl [Dichlorvos] | 1.43 |  |  |  |
| CCOP(=S)(OCC)Oc1nc(Cl)c(Cl)cc1Cl [Chlorpyrifos] | 4.96 | -4.2 | 1.4 |  |
| CNC(=O)Oc1ccccc1OC(C)C [Propoxur] | 1.52 | -4.9 |  | 14.8 |
| Cl[C@H]1[C@H](Cl)[C@@H](Cl)[C@@H](Cl)[C@H](Cl)[C@H]1Cl [Lindane] | 3.72 |  | 7.3 |  |
| CCOP(=S)(OCC)Oc1cc(C)nc(C(C)C)n1 [Diazinon] | 3.81 | 4.2 |  |  |
| CCNc1nc(Cl)nc(NC(C)C)n1 [Atrazine] | 2.61 | 1.6 |  |  |
| CCNc1nc(Cl)nc(NC(C)(C)C)n1 [Terbuthylazine] | 3.21 | 2 |  |  |

tested on: rat cardiomyoblast cells vs fish / zebrafish embryos; assay: Potency ratios of the Rodrigues et al. data; conditions: bioavailable concentrations; embryo data chronic exposure 35 dpf

| SMILES | potency ratio (Rodrigues et al. data) |
| --- | --- |
| Cl[C@H]1[C@H](Cl)[C@@H](Cl)[C@@H](Cl)[C@H](Cl)[C@H]1Cl [Lindane] | 13.6 |
